Data published in ChEMBL document CHEMBL1145783, “Development of an orexin-2 receptor selective agonist, [Ala(11), D-Leu(15)]orexin-B” (Bioorg Med Chem Lett, 2003).

These compounds were tested against T1, Orexin receptor type 2 (Homo sapiens, UniProt O43614) (assay: Agonist activity against human orexin 2 receptor; EC50; nM).
T1 sequence (O43614 whole entry): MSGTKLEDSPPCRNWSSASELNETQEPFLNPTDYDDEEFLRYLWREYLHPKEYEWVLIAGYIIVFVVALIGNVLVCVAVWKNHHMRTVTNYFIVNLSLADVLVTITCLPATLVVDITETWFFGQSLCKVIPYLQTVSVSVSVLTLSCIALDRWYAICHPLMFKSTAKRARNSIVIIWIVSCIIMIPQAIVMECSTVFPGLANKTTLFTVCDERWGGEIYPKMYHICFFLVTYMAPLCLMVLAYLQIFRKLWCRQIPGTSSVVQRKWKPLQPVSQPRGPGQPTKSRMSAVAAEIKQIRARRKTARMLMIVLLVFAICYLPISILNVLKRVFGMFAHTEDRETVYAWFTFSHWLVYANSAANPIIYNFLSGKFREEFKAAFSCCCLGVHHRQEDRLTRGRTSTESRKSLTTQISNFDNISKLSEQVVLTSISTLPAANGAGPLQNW
Assay type: functional
`CC[C@H](C)[C@H](NC(=O)[C@H](CC(C)C)NC(=O)[C@@H](NC(=O)[C@@H](N)CCSC)[C@@H](C)O)C(=O)NCC(=O)N[C@@H](C)C(=O)N[C@H](C)C(=O)N[C@@H](Cc1cnc[nH]1)C(=O)N[C@@H](CC(N)=O)C(=O)NCC(=O)N[C@@H](CO)C(=O)N[C@@H](C)C(=O)N[C@@H](CCC(N)=O)C(=O)N[C@@H](CC(C)C)C(=O)N[C@@H](CC(C)C)C(=O)N[C@@H](CCCN=C(N)N)C(=O)N[C@@H](CCC(N)=O)C(=O)N[C@@H](CC(C)C)C(=O)N[C@@H](CCCN=C(N)N)C(=O)NCC(=O)N[C@@H](CCC(N)=O)C(=O)N[C@@H](CC(C)C)C(=O)NCC(=O)N1CCC[C@H]1C(=O)N1CCC[C@H]1C(=O)NCC(=O)N[C@@H](CO)C(=O)N[C@@H](CCCN=C(N)N)C(N)=O` gave an EC50 of 2.6 nM.
Work on H-MALIGAAHNGSAQLLRQLRGQLGPPGSR-NH2 yielded an EC50 of 9.7 nM.
In the case of H-MTLIGAAHNGSAQLLRQLRGQLGPAGSR-NH2, the EC50 is reported as 0.23 nM.
In the case of H-MTLIGAAHNGSAQLLRQLRGQAGPPGSR-NH2, the EC50 is reported as 0.12 nM.
Compound `CC[C@H](C)[C@H](NC(=O)[C@H](CC(C)C)NC(=O)[C@@H](NC(=O)[C@@H](N)CCSC)[C@@H](C)O)C(=O)NCC(=O)N[C@@H](C)C(=O)N[C@@H](C)C(=O)N[C@@H](Cc1c[nH]cn1)C(=O)N[C@@H](CC(N)=O)C(=O)NCC(=O)N[C@@H](CO)C(=O)N[C@@H](C)C(=O)N[C@@H](CCC(N)=O)C(=O)N[C@@H](CC(C)C)C(=O)N[C@@H](CC(C)C)C(=O)N[C@@H](CCCN=C(N)N)C(=O)N[C@@H](CCC(N)=O)C(=O)N[C@@H](CC(C)C)C(=O)N[C@@H](CCCN=C(N)N)C(=O)NCC(=O)N[C@@H](CCC(N)=O)C(=O)N[C@@H](CC(C)C)C(=O)N[C@@H](C)C(=O)N1CCC[C@H]1C(=O)N1CCC[C@H]1C(=O)NCC(=O)N[C@@H](CO)C(=O)N[C@@H](CCCN=C(N)N)C(N)=O` has an EC50 of 0.12 nM.
In the case of H-MTLIGAAHNGSAQLLRQLRGALGPPGSR-NH2, the EC50 is reported as 0.46 nM.
In the case of `CC[C@H](C)[C@@H](NC(=O)[C@H](CC(C)C)NC(=O)[C@@H](NC(=O)[C@@H](N)CCSC)[C@@H](C)O)C(=O)NCC(=O)N[C@@H](C)C(=O)N[C@@H](C)C(=O)N[C@@H](Cc1c[nH]cn1)C(=O)N[C@@H](CC(N)=O)C(=O)NCC(=O)N[C@@H](CO)C(=O)N[C@@H](C)C(=O)N[C@@H](CCC(N)=O)C(=O)N[C@@H](CC(C)C)C(=O)N[C@@H](CC(C)C)C(=O)N[C@@H](CCCN=C(N)N)C(=O)N[C@@H](CCC(N)=O)C(=O)N[C@@H](CC(C)C)C(=O)N[C@@H](CCCN=C(N)N)C(=O)NCC(=O)N[C@@H](CCC(N)=O)C(=O)N[C@@H](CC(C)C)C(=O)NCC(=O)N1CCC[C@H]1C(=O)N1CCC[C@H]1C(=O)NCC(=O)N[C@@H](CO)C(=O)N[C@@H](CCCN=C(N)N)C(N)=O`, the EC50 is reported as > 1400 nM.
With `CC[C@H](C)[C@H](NC(=O)[C@H](CC(C)C)NC(=O)[C@@H](NC(=O)[C@@H](N)CCSC)[C@@H](C)O)C(=O)NCC(=O)N[C@@H](C)C(=O)N[C@@H](C)C(=O)N[C@@H](Cc1cnc[nH]1)C(=O)N[C@@H](CC(N)=O)C(=O)NCC(=O)N[C@@H](CO)C(=O)N[C@@H](C)C(=O)N[C@@H](CCC(N)=O)C(=O)N[C@@H](CC(C)C)C(=O)N[C@@H](CC(C)C)C(=O)N[C@@H](CCCN=C(N)N)C(=O)N[C@@H](CCC(N)=O)C(=O)N[C@@H](CC(C)C)C(=O)N[C@@H](CCCN=C(N)N)C(=O)NCC(=O)N[C@H](CCC(N)=O)C(=O)N[C@@H](CC(C)C)C(=O)NCC(=O)N1CCC[C@H]1C(=O)N1CCC[C@H]1C(=O)NCC(=O)N[C@@H](CO)C(=O)N[C@@H](CCCN=C(N)N)C(N)=O` the EC50 was 0.32 nM.
H-MTLIGAAHNGSAALLRQLRGQLGPPGSR-NH2 was tested, and the EC50 was 0.13 nM.
H-MTLIGAAHNGSAQLLRQSRGQLGPPGSR-NH2 gave an EC50 of 1.2 nM.
`CC[C@H](C)[C@H](NC(=O)[C@H](CC(C)C)NC(=O)[C@@H](NC(=O)[C@@H](N)CCSC)[C@@H](C)O)C(=O)NCC(=O)N[C@@H](C)C(=O)N[C@@H](C)C(=O)N[C@@H](Cc1cnc[nH]1)C(=O)N[C@@H](CC(N)=O)C(=O)NCC(=O)N[C@@H](CO)C(=O)N[C@@H](C)C(=O)N[C@@H](CCC(N)=O)C(=O)N[C@@H](CC(C)C)C(=O)N[C@@H](CC(C)C)C(=O)N[C@@H](CCCN=C(N)N)C(=O)N[C@@H](CCC(N)=O)C(=O)N[C@@H](CC(C)C)C(=O)N[C@@H](CCCN=C(N)N)C(=O)N[C@H](C)C(=O)N[C@@H](CCC(N)=O)C(=O)N[C@@H](CC(C)C)C(=O)NCC(=O)N1CCC[C@H]1C(=O)N1CCC[C@H]1C(=O)NCC(=O)N[C@@H](CO)C(=O)N[C@@H](CCCN=C(N)N)C(N)=O` was tested, and the EC50 was 0.13 nM.
H-MTLIGAGHNGSAQLLRQLRGQLGPPGSR-NH2 showed an EC50 of 0.27 nM.
Compound `CC[C@H](C)[C@H](NC(=O)[C@H](CC(C)C)NC(=O)[C@@H](NC(=O)[C@@H](N)CCSC)[C@@H](C)O)C(=O)NCC(=O)N[C@@H](C)C(=O)N[C@@H](C)C(=O)N[C@@H](Cc1cnc[nH]1)C(=O)N[C@@H](CC(N)=O)C(=O)NCC(=O)N[C@@H](CO)C(=O)N[C@@H](C)C(=O)N[C@@H](CCC(N)=O)C(=O)N[C@@H](CC(C)C)C(=O)N[C@@H](CC(C)C)C(=O)N[C@H](CCCN=C(N)N)C(=O)N[C@@H](CCC(N)=O)C(=O)N[C@@H](CC(C)C)C(=O)N[C@@H](CCCN=C(N)N)C(=O)NCC(=O)N[C@@H](CCC(N)=O)C(=O)N[C@@H](CC(C)C)C(=O)NCC(=O)N1CCC[C@H]1C(=O)N1CCC[C@H]1C(=O)NCC(=O)N[C@@H](CO)C(=O)N[C@@H](CCCN=C(N)N)C(N)=O` has an EC50 of 0.41 nM.
`CC[C@H](C)[C@H](NC(=O)[C@H](CC(C)C)NC(=O)[C@@H](NC(=O)[C@@H](N)CCSC)[C@@H](C)O)C(=O)NCC(=O)N[C@@H](C)C(=O)N[C@@H](C)C(=O)N[C@@H](Cc1c[nH]cn1)C(=O)N[C@@H](CC(N)=O)C(=O)NCC(=O)N[C@@H](CO)C(=O)N[C@@H](C)C(=O)N[C@H](CCC(N)=O)C(=O)N[C@@H](CC(C)C)C(=O)N[C@@H](CC(C)C)C(=O)N[C@@H](CCCN=C(N)N)C(=O)N[C@@H](CCC(N)=O)C(=O)N[C@@H](CC(C)C)C(=O)N[C@@H](CCCN=C(N)N)C(=O)NCC(=O)N[C@@H](CCC(N)=O)C(=O)N[C@@H](CC(C)C)C(=O)NCC(=O)N1CCC[C@H]1C(=O)N1CCC[C@H]1C(=O)NCC(=O)N[C@@H](CO)C(=O)N[C@@H](CCCN=C(N)N)C(N)=O` showed an EC50 of 0.41 nM.
For `CSCC[C@H](N)C(=O)N[C@H](C(=O)N[C@@H](CC(C)C)C(=O)N[C@H](C)C(=O)NCC(=O)N[C@@H](C)C(=O)N[C@@H](C)C(=O)N[C@@H](Cc1c[nH]cn1)C(=O)N[C@@H](CC(N)=O)C(=O)NCC(=O)N[C@@H](CO)C(=O)N[C@@H](C)C(=O)N[C@@H](CCC(N)=O)C(=O)N[C@@H](CC(C)C)C(=O)N[C@@H](CC(C)C)C(=O)N[C@@H](CCCN=C(N)N)C(=O)N[C@@H](CCC(N)=O)C(=O)N[C@@H](CC(C)C)C(=O)N[C@@H](CCCN=C(N)N)C(=O)NCC(=O)N[C@@H](CCC(N)=O)C(=O)N[C@@H](CC(C)C)C(=O)NCC(=O)N1CCC[C@H]1C(=O)N1CCC[C@H]1C(=O)NCC(=O)N[C@@H](CO)C(=O)N[C@@H](CCCN=C(N)N)C(N)=O)[C@@H](C)O`, the EC50 was > 390 nM.
H-MTLIGAAHNGSAQLLRQWRGQLGPPGSR-NH2 showed an EC50 of 0.15 nM.
H-MTLIGAAANGSAQLLRQLRGQLGPPGSR-NH2 showed an EC50 of 0.72 nM.
